ChEMBL document CHEMBL1156835, “Discovery of new SCH 39166 analogs as potent and selective dopamine D1 receptor antagonists” (Bioorg Med Chem Lett, 2010)

Legend:
[1] = target: D(2) dopamine receptor (Homo sapiens, UniProt P14416); experiment: Binding affinity to dopamine D2 receptor
[2] = target: D(1A) dopamine receptor (Homo sapiens, UniProt P21728); experiment: Binding affinity to dopamine D1 receptor
[3] = AUC in rat; assay type: ADME, organism-based; conditions: plasma
[4] = Oral bioavailability in rat; assay type: ADME, organism-based; conditions: in vivo
[5] = target: D(1B) dopamine receptor (Homo sapiens, UniProt P21918); experiment: Binding affinity to dopamine D5 receptor
Chain of D(1B) dopamine receptor (P21918 whole entry): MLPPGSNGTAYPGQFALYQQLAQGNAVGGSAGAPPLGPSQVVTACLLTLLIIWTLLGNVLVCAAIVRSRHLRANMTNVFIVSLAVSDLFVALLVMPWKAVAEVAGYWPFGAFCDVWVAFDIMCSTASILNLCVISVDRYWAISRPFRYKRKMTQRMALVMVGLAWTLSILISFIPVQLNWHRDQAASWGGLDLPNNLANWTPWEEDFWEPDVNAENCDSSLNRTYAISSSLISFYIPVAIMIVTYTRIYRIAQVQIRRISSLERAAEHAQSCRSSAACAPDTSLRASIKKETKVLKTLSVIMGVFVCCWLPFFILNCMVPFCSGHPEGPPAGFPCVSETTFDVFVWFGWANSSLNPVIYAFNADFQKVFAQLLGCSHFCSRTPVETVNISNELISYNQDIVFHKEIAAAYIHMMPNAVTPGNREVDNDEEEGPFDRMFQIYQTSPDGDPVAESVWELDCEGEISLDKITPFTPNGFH

[6] = target: T1, D(4) dopamine receptor (Homo sapiens, UniProt P21917); experiment: Binding affinity to dopamine D4 receptor
T1 sequence (P21917 whole entry): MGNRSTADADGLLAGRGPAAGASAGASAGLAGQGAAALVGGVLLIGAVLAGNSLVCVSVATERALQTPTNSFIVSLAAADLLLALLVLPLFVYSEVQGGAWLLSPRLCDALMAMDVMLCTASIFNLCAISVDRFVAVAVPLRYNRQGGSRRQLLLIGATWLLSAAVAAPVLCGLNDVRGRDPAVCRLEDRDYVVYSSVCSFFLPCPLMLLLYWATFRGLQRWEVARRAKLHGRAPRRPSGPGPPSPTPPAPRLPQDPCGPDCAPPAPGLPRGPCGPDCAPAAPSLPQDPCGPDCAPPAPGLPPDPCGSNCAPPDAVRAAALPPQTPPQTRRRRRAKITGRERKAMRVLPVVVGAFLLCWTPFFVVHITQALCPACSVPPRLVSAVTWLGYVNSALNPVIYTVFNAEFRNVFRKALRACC

[7] = Selectivity ratio, Ki for dopamine D1 receptor to Ki for dopamine D2 receptor

Chain of D(1A) dopamine receptor (P21728 whole entry): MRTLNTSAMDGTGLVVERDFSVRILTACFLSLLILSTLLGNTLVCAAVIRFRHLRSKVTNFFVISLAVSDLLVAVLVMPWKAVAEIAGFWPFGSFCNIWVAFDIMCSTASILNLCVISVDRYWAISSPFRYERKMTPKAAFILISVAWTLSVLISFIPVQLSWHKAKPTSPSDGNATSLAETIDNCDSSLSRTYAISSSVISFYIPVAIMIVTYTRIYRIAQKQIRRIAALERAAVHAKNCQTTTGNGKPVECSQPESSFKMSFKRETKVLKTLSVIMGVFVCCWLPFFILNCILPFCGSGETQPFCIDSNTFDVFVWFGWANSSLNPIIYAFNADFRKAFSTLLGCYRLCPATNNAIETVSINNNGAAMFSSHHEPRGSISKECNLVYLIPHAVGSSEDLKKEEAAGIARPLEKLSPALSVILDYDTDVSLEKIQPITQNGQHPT
Chain of D(2) dopamine receptor (P14416 whole entry): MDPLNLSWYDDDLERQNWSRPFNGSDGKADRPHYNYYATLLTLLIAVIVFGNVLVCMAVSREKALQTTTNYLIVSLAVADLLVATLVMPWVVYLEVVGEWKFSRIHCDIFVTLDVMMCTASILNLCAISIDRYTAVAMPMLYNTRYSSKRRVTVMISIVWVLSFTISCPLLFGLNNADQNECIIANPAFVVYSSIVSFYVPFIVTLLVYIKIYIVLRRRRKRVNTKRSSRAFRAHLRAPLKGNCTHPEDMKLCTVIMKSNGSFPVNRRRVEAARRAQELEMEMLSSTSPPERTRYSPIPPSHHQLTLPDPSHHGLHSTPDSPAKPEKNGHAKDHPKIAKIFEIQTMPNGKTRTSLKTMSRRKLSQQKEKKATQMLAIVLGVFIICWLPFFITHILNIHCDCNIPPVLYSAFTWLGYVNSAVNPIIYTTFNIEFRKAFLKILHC

| Structure (SMILES) | Ki [1] [nM] | Ki [2] [nM] | AUC [3] [ng·h/mL] | bioavailability [4] [%] | Ki [5] [nM] | Ki [6] [µM] | Ratio Ki [7] |
| --- | --- | --- | --- | --- | --- | --- | --- |
| CCNC(=O)Nc1cccc2c1CC[C@H]1[C@H]2c2cc(O)c(Cl)cc2CCN1C | 900 | 2.4 | – | – | – | – | – |
| CN1CCc2cc(Cl)c(O)cc2[C@H]2c3cccc(NS(C)(=O)=O)c3CC[C@@H]21 | 1000 | 4.7 | – | – | – | – | – |
| CN1CCc2cc(Cl)c(O)cc2[C@H]2c3ccc(NS(C)(=O)=O)cc3CC[C@@H]21 | 3000 | 0.5 | 2490 | 29 | 5.8 | > 10 | – |
| CN1CCc2cc(Cl)c(O)cc2[C@@H](c2ccc(CN(C)S(=O)(=O)c3ccccc3)cc2)C1 | 331 | 0.6 | – | – | 1.2 | 4.33 | – |
| CN1CCc2cc(Cl)c(O)cc2[C@@H](c2ccc(CN(Cc3ccccc3)c3ccc(F)cc3F)cc2)C1 | 552 | 0.7 | – | – | – | – | – |
| CN1CCc2cc(Cl)c(O)cc2[C@H]2c3cc(CN4CCCCC4)ccc3CC[C@@H]21 | 26 | 225 | – | – | – | – | 8.7 |
| CN1CCc2cc(Cl)c(O)cc2[C@@H](c2ccc(CNc3ccccc3)cc2)C1 | 2000 | 2 | – | – | – | – | – |
| CN1CCc2cc(Cl)c(O)cc2[C@H]2c3cccc(NC(=O)C4CC4)c3CC[C@@H]21 | 2140 | 5.7 | – | – | – | – | – |
| CN1CCc2cc(Cl)c(O)cc2[C@H]2c3ccc(NC(=O)Nc4c(Cl)cccc4Cl)cc3CC[C@@H]21 | 1090 | 0.7 | – | – | – | – | – |
| CC(=O)N(Cc1ccc([C@H]2CN(C)CCc3cc(Cl)c(O)cc32)cc1)C1CCC1 | 159 | 0.2 | – | – | 13 | > 10 | – |
| CCS(=O)(=O)Nc1cccc2c1CC[C@H]1[C@H]2c2cc(O)c(Cl)cc2CCN1C | 618 | 5.8 | – | – | – | – | – |
| CN1CCc2cc(Cl)c(O)cc2[C@H]2c3cc(CN4CCN(c5ccccn5)CC4)ccc3CC[C@@H]21 | 1.3 | 152 | – | – | – | – | 117 |
| CN1CCc2cc(Cl)c(O)cc2[C@@H](c2ccc(CN(C3CCC3)S(C)(=O)=O)cc2)C1 | 2000 | 0.5 | – | – | 5.9 | > 10 | – |
| CCNC(=O)Nc1ccc2c(c1)CC[C@H]1[C@H]2c2cc(O)c(Cl)cc2CCN1C | 6000 | 1.5 | – | – | 7.1 | > 10 | – |
| CN1CCc2cc(Cl)c(O)cc2[C@@H](c2ccc(CN(C)S(C)(=O)=O)cc2)C1 | 6000 | 0.5 | – | – | – | – | – |
| CN1CCc2cc(Cl)c(O)cc2[C@H]2c3ccccc3CC[C@@H]21 [ECOPIPAM] | – | – | 156 | 0.6 | – | – | – |
| CN1CCc2cc(Cl)c(O)cc2[C@@H](c2ccc(CNC3CCC3)cc2)C1 | 2000 | – | – | – | 3.9 | > 10 | – |
| CCC(=O)Nc1cccc2c1CC[C@H]1[C@H]2c2cc(O)c(Cl)cc2CCN1C | 500 | 2.3 | – | – | – | – | – |
| CN1CCc2cc(Cl)c(O)cc2[C@H]2c3ccc(NC(=O)C4CC4)cc3CC[C@@H]21 | > 10000 | 2.3 | – | – | – | – | – |
| CCS(=O)(=O)Nc1ccc2c(c1)CC[C@H]1[C@H]2c2cc(O)c(Cl)cc2CCN1C | 3300 | 0.7 | – | – | 5.6 | > 10 | – |
| CCOC(=O)Nc1ccc2c(c1)CC[C@H]1[C@H]2c2cc(O)c(Cl)cc2CCN1C | 3900 | 1.4 | – | – | 3.3 | > 10 | – |
| CN1CCc2cc(Cl)c(O)cc2[C@H]2c3cccc(NC(=O)Nc4c(Cl)cccc4Cl)c3CC[C@@H]21 | 566 | 7.1 | – | – | – | – | – |
| CN1CCc2cc(Cl)c(O)cc2[C@H]2c3ccc(N)cc3CC[C@@H]21 | 5400 | 7 | – | – | 8.3 | > 10 | – |
| CN1CCc2cc(Cl)c(O)cc2[C@H]2c3cccc(N)c3CC[C@@H]21 | 2100 | 2.8 | – | – | 7 | > 10 | – |
